Results published in the NIST ThermoML archive (doi:10.1016/j.jct.2015.09.022).
± gives the expanded uncertainty stated by the source.

Experiment: xn = mol fraction of the nth substance listed
Conditions: 100.7 kPa, Liquid; for viscosity: Falling or rolling sphere viscometry; for speed of sound: Frequency=3 MHz, Sing-around technique in a fixed-path interferometer; for mass density: Vibrating tube method

CCCCN [1-butanamine] + CCCC[n+]1ccn(C)c1.O=S(=O)([N-]S(=O)(=O)C(F)(F)F)C(F)(F)F
Conditions | mass density [kg/m3] | speed of sound [m/s] | viscosity [mPa·s]
298.15 K, x2 = 0 | 733.33 ± 0.2 | 1246.5 ± 1.3 | 0.47 ± 0.03
298.15 K, x2 = 0.0261 | – | 1234 ± 1.3 | –
298.15 K, x2 = 0.0486 | – | 1225.4 ± 1.3 | –
298.15 K, x2 = 0.0804 | – | 1216.5 ± 1.3 | –
298.15 K, x2 = 0.1026 | 916.12 ± 0.42 | 1211.6 ± 1.3 | 2.11 ± 0.13
298.15 K, x2 = 0.2026 | 1042.14 ± 0.29 | 1203.5 ± 1.3 | 4.44 ± 0.27
298.15 K, x2 = 0.3004 | 1134.03 ± 0.25 | 1203.2 ± 1.3 | 7.22 ± 0.44
298.15 K, x2 = 0.4056 | 1209.89 ± 0.27 | 1205.1 ± 1.4 | 11.01 ± 0.67
298.15 K, x2 = 0.5051 | 1266.69 ± 0.31 | 1208 ± 1.4 | 14.99 ± 0.91
298.15 K, x2 = 0.6119 | 1316.23 ± 0.37 | 1212 ± 1.4 | 20.24 ± 1.2
298.15 K, x2 = 0.7025 | 1351.49 ± 0.42 | 1215.1 ± 1.4 | 25.4 ± 1.5
298.15 K, x2 = 0.8002 | 1383.95 ± 0.48 | 1218.1 ± 1.5 | 32.04 ± 1.9
298.15 K, x2 = 0.9015 | 1412.83 ± 0.55 | 1222.9 ± 1.5 | 40.3 ± 2.4
303.15 K, x2 = 0 | 728.5 ± 0.2 | 1223.9 ± 1.3 | 0.44 ± 0.03
303.15 K, x2 = 0.0261 | – | 1212.2 ± 1.3 | –
303.15 K, x2 = 0.0486 | – | 1204.5 ± 1.3 | –
303.15 K, x2 = 0.0804 | – | 1196.3 ± 1.3 | –
303.15 K, x2 = 0.1026 | 911.59 ± 0.35 | 1192.1 ± 1.3 | 1.59 ± 0.1
303.15 K, x2 = 0.2026 | 1037.64 ± 0.27 | 1186.4 ± 1.3 | 3.23 ± 0.2
303.15 K, x2 = 0.3004 | 1129.36 ± 0.26 | 1187.1 ± 1.3 | 5.31 ± 0.32
303.15 K, x2 = 0.4056 | 1205.12 ± 0.28 | 1190 ± 1.4 | 8.35 ± 0.51
303.15 K, x2 = 0.5051 | 1262.02 ± 0.32 | 1193.8 ± 1.4 | 11.71 ± 0.71
303.15 K, x2 = 0.6119 | 1311.69 ± 0.37 | 1198.9 ± 1.4 | 16.01 ± 0.97
303.15 K, x2 = 0.7025 | 1346.8 ± 0.42 | 1203 ± 1.4 | 20.08 ± 1.2
303.15 K, x2 = 0.8002 | 1379.23 ± 0.48 | 1208 ± 1.5 | 25.55 ± 1.6
303.15 K, x2 = 0.9015 | 1408.07 ± 0.55 | 1212.9 ± 1.5 | 32.07 ± 1.9
308.15 K, x2 = 0 | 723.67 ± 0.2 | 1201.3 ± 1.3 | 0.41 ± 0.03
308.15 K, x2 = 0.0261 | – | 1190.3 ± 1.3 | –
308.15 K, x2 = 0.0486 | – | 1183.5 ± 1.3 | –
308.15 K, x2 = 0.0804 | – | 1177.2 ± 1.3 | –
308.15 K, x2 = 0.1026 | 907.02 ± 0.35 | 1174.1 ± 1.3 | 1.31 ± 0.08
308.15 K, x2 = 0.2026 | 1033.16 ± 0.27 | 1169 ± 1.3 | 2.63 ± 0.16
308.15 K, x2 = 0.3004 | 1124.87 ± 0.26 | 1170.3 ± 1.3 | 4.2 ± 0.26
308.15 K, x2 = 0.4056 | 1200.55 ± 0.28 | 1174.5 ± 1.4 | 6.58 ± 0.4
308.15 K, x2 = 0.5051 | 1257.23 ± 0.32 | 1178.9 ± 1.4 | 9.28 ± 0.56
308.15 K, x2 = 0.6119 | 1306.91 ± 0.37 | 1184.8 ± 1.4 | 12.71 ± 0.77
308.15 K, x2 = 0.7025 | 1342.12 ± 0.42 | 1189.6 ± 1.4 | 16.01 ± 0.97
308.15 K, x2 = 0.8002 | 1374.49 ± 0.48 | 1195.6 ± 1.5 | 20.49 ± 1.2
308.15 K, x2 = 0.9015 | 1403.3 ± 0.54 | 1200.9 ± 1.5 | 26.13 ± 1.6
313.15 K, x2 = 0 | 718.66 ± 0.2 | 1178.7 ± 1.3 | 0.39 ± 0.02
313.15 K, x2 = 0.0261 | – | 1169.5 ± 1.3 | –
313.15 K, x2 = 0.0486 | – | 1163.2 ± 1.3 | –
313.15 K, x2 = 0.0804 | – | 1157.5 ± 1.3 | –
313.15 K, x2 = 0.1026 | 902.44 ± 0.35 | 1155 ± 1.3 | 1.1 ± 0.07
313.15 K, x2 = 0.2026 | 1028.65 ± 0.27 | 1152.5 ± 1.3 | 1.99 ± 0.12
313.15 K, x2 = 0.3004 | 1120.14 ± 0.26 | 1155.1 ± 1.3 | 3.21 ± 0.19
313.15 K, x2 = 0.4056 | 1195.66 ± 0.28 | 1160 ± 1.3 | 4.98 ± 0.3
313.15 K, x2 = 0.5051 | 1252.53 ± 0.31 | 1165.2 ± 1.4 | 7.11 ± 0.43
313.15 K, x2 = 0.6119 | 1302.05 ± 0.37 | 1171.9 ± 1.4 | 9.9 ± 0.6
313.15 K, x2 = 0.7025 | 1337.26 ± 0.42 | 1177.8 ± 1.4 | 12.8 ± 0.78
313.15 K, x2 = 0.8002 | 1369.77 ± 0.48 | 1184.5 ± 1.5 | 16.65 ± 1
313.15 K, x2 = 0.9015 | 1398.51 ± 0.54 | 1190.5 ± 1.5 | 21.62 ± 1.3
318.15 K, x2 = 0 | 714.1 ± 0.2 | 1156.2 ± 1.3 | 0.37 ± 0.02
318.15 K, x2 = 0.0261 | – | 1148.2 ± 1.3 | –
318.15 K, x2 = 0.0486 | – | 1143.2 ± 1.3 | –
318.15 K, x2 = 0.0804 | – | 1138.2 ± 1.3 | –
318.15 K, x2 = 0.1026 | 898.17 ± 0.35 | 1137.8 ± 1.3 | 0.87 ± 0.05
318.15 K, x2 = 0.2026 | 1024.27 ± 0.27 | 1137.2 ± 1.3 | 1.57 ± 0.1
318.15 K, x2 = 0.3004 | 1115.68 ± 0.26 | 1141.4 ± 1.3 | 2.53 ± 0.15
318.15 K, x2 = 0.4056 | 1191.05 ± 0.28 | 1146.8 ± 1.3 | 3.95 ± 0.24
318.15 K, x2 = 0.5051 | 1247.99 ± 0.31 | 1152.5 ± 1.4 | 5.65 ± 0.34
318.15 K, x2 = 0.6119 | 1297.45 ± 0.37 | 1160 ± 1.4 | 7.95 ± 0.48
318.15 K, x2 = 0.7025 | 1332.6 ± 0.41 | 1167 ± 1.4 | 10.45 ± 0.63
318.15 K, x2 = 0.8002 | 1364.99 ± 0.47 | 1174.2 ± 1.5 | 13.75 ± 0.83
318.15 K, x2 = 0.9015 | 1393.75 ± 0.54 | 1180.5 ± 1.5 | 17.99 ± 1.1
323.15 K, x2 = 0 | 709.21 ± 0.2 | 1133.5 ± 1.3 | 0.35 ± 0.02
323.15 K, x2 = 0.0261 | – | 1126.2 ± 1.3 | –
323.15 K, x2 = 0.0486 | – | 1121.5 ± 1.3 | –
323.15 K, x2 = 0.0804 | – | 1117.8 ± 1.3 | –
323.15 K, x2 = 0.1026 | 893.96 ± 0.56 | 1118.6 ± 1.3 | 0.74 ± 0.05
323.15 K, x2 = 0.2026 | 1019.8 ± 0.4 | 1119 ± 1.3 | 1.32 ± 0.08
323.15 K, x2 = 0.3004 | 1110.93 ± 0.34 | 1124.5 ± 1.3 | 2.09 ± 0.13
323.15 K, x2 = 0.4056 | 1186.44 ± 0.32 | 1130.6 ± 1.3 | 3.26 ± 0.2
323.15 K, x2 = 0.5051 | 1243.22 ± 0.34 | 1137.2 ± 1.4 | 4.64 ± 0.28
323.15 K, x2 = 0.6119 | 1292.55 ± 0.38 | 1145.6 ± 1.4 | 6.49 ± 0.39
323.15 K, x2 = 0.7025 | 1327.75 ± 0.42 | 1153 ± 1.4 | 8.48 ± 0.51
323.15 K, x2 = 0.8002 | 1360.33 ± 0.48 | 1161.3 ± 1.5 | 11.32 ± 0.69
323.15 K, x2 = 0.9015 | 1389.17 ± 0.54 | 1168.3 ± 1.5 | 14.91 ± 0.9
